# Assay results: patent US20250295800A1, “CONJUGATE OF A SINGLE DOMAIN ANTIBODY, A SAPONIN AND AN EFFECTOR MOLECULE, PHARMACEUTICAL COMPOSITION COMPRISING THE SAME, THERAPEUTIC USE OF SAID PHARMACEUTICAL COMPOSITION” (SAPREME TECHNOLOGIES B.V., priority 2021, published 2025)
# Where two headings read alike, the source gives them in different places.
# Columns and labels:
# [1] = system: endosomal escape of effector molecule; experiment: Endosomal escape enhancing activity of saponins (cell-based assays, in vivo models); settings: in vivo animal tumor models, LDL lowering therapy models, free or cleavably conjugated saponin
# [2] = Critical micellar concentration (CMC) of saponins, ANS fluorimetric method; format: physicochemical; settings: for CMC: QS saponins derived from Quillaja saponaria
# Procedure: The critical micellar concentration (CMC) of saponin SO1861 derived from Saponaria officinalis (SO) and QS saponins derived from Quillaja saponaria (QS) (Table A5) was determined by the method of DeVendittis et al. (A fluorimetric method for the estimation of the critical micelle concentration of surfactants, Analytical Biochemistry, Volume 115, Issue 2, August 1981, Pages 278-286) as follows:
# The emission spectrum of 8-Anilinonaphthalene-1-sulfonic acid (ANS) in either purified water (MQ) or PBS (Dulbecco's PBS+/+) was determined at dry weight concentrations of saponins ranging from […] to cover the range below and above the CMC. Above the CMC, the fluorescence yield of ANS increases and the wavelength of maximum emission decreases due to portioning of the fluorescent dye into micelles. Fluorescence yields were recorded on a Fluoroskan Ascent FL (Thermo Scientific) at an excitation wavelength of 355 nm, and an emission wavelength of 460 nm. 6 μg at a concentration of 75.86 μM of ANS were used per sample and measurement.
# [3] = system: MDA-MB-468 cells (HER2-/EGFR++/CD71+); experiment: Cell killing (MTS) assay on MDA-MB-468 cells; format: cell-based, human
# Procedure: (§1) After treatment the cells were incubated for 72 hr at 37° C. before the cell viability was determined by a MTS-assay, performed according to the manufacturer's instruction (CellTiter 96@AQueous One Solution Cell Proliferation Assay, Promega). Briefly, the MTS solution was diluted 20× in DMEM without phenol red (PAN-Biotech GmbH) supplemented with 10% FBS. The cells were washed once with 200 μL/PBS well, after which 100 μL diluted MTS solution was added/well. The plate was incubated for approximately 20-30 minutes at 37° C. Subsequently, the OD at 492 nm was measured on a Thermo Scientific Multiskan FC plate reader (Thermo Scientific). For quantification the background signal of ‘medium only’ wells was subtracted from all other wells, before the cell viability percentage of treated/untreated cells was calculated, by dividing the background corrected signal of treated wells over the background corrected signal of the untreated wells (×100).
# [4] = system: SK-BR-3 cells (HER2++/EGFR+/CD71+); experiment: Cell killing (MTS) assay on SK-BR-3 cells; format: cell-based, human
# Procedure: as §1
# [5] = system: A2058 cells (EGFR-/HER2+/-/CD71+); experiment: Cell viability / cell killing (MTS) assay on A2058 cells; format: cell-based, human
# Procedure: (§2) Cells were seeded in a 96 well plate at 5.000-10.000 c/w in 100 μL/well and incubated overnight at 37° C. The next day 10× concentrated treatment-mix samples were prepared in PBS, which contain antibody-conjugated SO1861 (i.e. a ‘binding molecule’ or an ‘endosomal escape enhancing conjugate’ of the invention) and targeted-toxin (i.e. a ‘binding molecule’) both at 10× final concentration. The media was removed from the cell culture plate and replaced by 180 μL culture media, followed by the addition of 20 μL treatment-mix/well. For control, 10× treatment-mix samples were prepared that contained the corresponding concentrations of only antibody-conjugated SO1861, only antibody, only SO1861, only targeted-toxin, or PBS without compound as vehicle control. After treatment the cells were incubated for 72 hr at 37° C. before the cell viability was determined by a MTS-assay, performed according to the manufacturer's instruction (CellTiter 96® AQueous One Solution Cell Proliferation Assay, Promega). Briefly, the MTS solution was diluted 20× in DMEM without phenol red (PAN-Biotech GmbH) supplemented with 10% FBS (PAN-Biotech GmbH). The cells were washed once with 200 μL PBS per well, after which 100 μL diluted MTS solution was added per well. The plate was incubated for approximately 20-30 minutes at 37° C. Subsequently, the optical density at 492 nm was measured on a Thermo Scientific Multiskan FC plate reader (Thermo Scientific). For quantification the background signal of ‘medium only’ wells was subtracted from all other wells, before the ratio of untreated/treated cells was calculated, by dividing the background corrected signal of untreated wells over the background corrected signal of the treated wells.
# as §1
# [6] = system: A431 cells (EGFR++/HER2+/-/CD71+); experiment: Cell viability / cell killing (MTS) assay on A431 cells; format: cell-based, human
# Procedure: as §2, §1
# [7] = Release kinetic assay of saponin from linker at various pH; format: physicochemical; settings: pH 4.0, 37° C.
# Procedure: SO1861-SC-Mal (blocked) (saponin covalently coupled to the linker through an acid-labile semicarbazone (sc) bond) was tested for efficient pH sensitive release with a release kinetic assay and compared with release kinetics for SO1861-EMCH (blocked) (saponin covalently coupled to the linker through an acid-labile hydrazone bond). The assay was performed in buffers with pH 7.4, pH 6.0 pH, pH 5.0, pH 4.0 at 37° C. for 24 hours.
# [8] = biological target: EGFR (human) (UniProt P00533); experiment: cell-based or functional assay
compound,measurement,setting,value
CC(=O)OC1C(C)OC(OC2C(C)OC(OC(=O)[C@]34CCC(C)(C)CC3C3=CCC5[C@@]6(C)CC[C@H](OC7OC(C(=O)O)C(O)C(OC8OCC(O)C(O)C8O)C7OC7OC(CO)C(O)C(O)C7O)[C@@](C)(C=O)C6CC[C@@]5(C)[C@]3(C)C[C@H]4O)C(OC3OC(C)C(OC4OCC(O)C(OC5OCC(O)C(O)C5O)C4O)C(O)C3O)C2O)C(O)C1OC1OCC(O)C(O)C1O (stereo partly shown) [SO1832],endosomal escape enhancing activity,[1],activity was confirmed
QS-17 [QS17],CMC,[2],70 ± 7 µM
SO1861,endosomal escape enhancing activity,[1],activity was confirmed
same,CMC value,[2]; native SO1861 in PBS,185 µM
same,IC50,"[3]; MDA-MB-468 (EGFR++), SO1861 titrated on fixed 50 pM VHH-EGFR-dianthin",300 nM
same,IC50,"[3]; MDA-MB-468 (EGFR++), titrated on fixed 1 pM or 5 pM bivalentVHH-EGFR-dianthin",1000 nM
same,IC50,"[3]; MDA-MB-468 (HER2-/CD71+), SO1861 titrated on fixed 50 pM VHH-CD71-dianthin",200 nM
same,cell killing IC50,"[3]; MDA-MB-468 (HER2-/CD71+), SO1861 titrated on fixed 50 pM VHH-HER2-dianthin",no enhanced activity compared to SO1861 alone
same,IC50,"[4]; SK-BR-3 (EGFR+), SO1861 titrated on fixed 50 pM VHH-EGFR-dianthin",700 nM
same,IC50,"[4]; SK-BR-3 (HER2++/CD71+), SO1861 titrated on fixed 50 pM VHH-CD71-dianthin",200 nM
same,IC50,"[4]; SK-BR-3 (HER2++/CD71+), SO1861 titrated on fixed 50 pM VHH-HER2-dianthin",200 nM
same,IC50,"[5]; A2058 (CD71+), SO1861 titrated on fixed 50 pM VHHCD71-dianthin",200 nM
same,cell killing IC50,"[5]; A2058 (EGFR-), SO1861 titrated on fixed 50 pM VHHEGFR-dianthin",no activity
same,IC50,"[5]; A2058 (HER2+/-), SO1861 titrated on fixed 50 pM VHH-HER2-dianthin",700 nM
same,IC50,"[6]; A431 (CD71+), SO1861 titrated on fixed 50 pM VHHCD71-dianthin, read-out: cell killing IC50",200 nM
same,IC50,"[6]; A431 (EGFR++), SO1861 titrated on fixed 50 pM VHHEGFR-dianthin, read-out: cell killing IC50",400 nM
same,cell killing IC50,"[6]; A431 (HER2+/-), SO1861 titrated on fixed 50 pM VHH-HER2-dianthin",no activity
same,IC50,"[6]; A431, SO1861 alone, read-out: SO1861 tolerated concentration IC50",1000 nM
SO1904,endosomal escape enhancing activity,[1],activity was confirmed
"CC(=O)O[C@@H]1[C@H](O[C@@H]2O[C@@H](C)[C@H](O)[C@@H](O)[C@H]2O)[C@@H](O[C@@H]2O[C@@H](C)[C@H](O[C@@H]3OC[C@@H](O)[C@H](O[C@@H]4OC[C@](O)(CO)[C@H]4O)[C@H]3O)[C@@H](O[C@@H]3O[C@H](CO)[C@@H](O)[C@H](O)[C@H]3O)[C@H]2O)[C@H](OC(=O)[C@]23CCC(C)(C)C[C@H]2C2=CC[C@@H]4[C@@]5(C)CC[C@H](O[C@@H]6O[C@H](C(=O)O)[C@@H](O)[C@H](O[C@@H]7OC[C@@H](O)[C@H](O)[C@H]7O)[C@H]6O[C@@H]6O[C@H](CO)[C@H](O)[C@H](O)[C@H]6O)[C@@](C)(C=O)[C@@H]5CC[C@@]4(C)[C@]2(C)C[C@H]3O)O[C@@H]1C [QS7, QS-7]",CMC,[2],230 ± 25 µM
QS-21 [QS21],endosomal escape enhancing activity,[1],activity was confirmed
same,CMC,[2],75 ± 8 µM
"CCC(C)C(CC(O)CC(=O)OC1C(C)OC(OC(=O)C23CCC(C)(C)CC2C2=CCC4C5(C)CCC(OC6OC(C(=O)O)C(O)C(OC7OCC(O)C(O)C7O)C6OC6OC(CO)C(O)C(O)C6O)C(C)(C=O)C5CCC4(C)C2(C)CC3O)C(OC2OC(C)C(OC3OCC(O)C(OC4OCC(O)(CO)C4O)C3O)C(OC3OC(CO)C(O)C(O)C3O)C2O)C1O)OC(=O)CC(O)CC(OC1OC(CO)C(O)C1O)C(C)CC (stereo not shown) [QS18, QS-18]",CMC,[2],68 ± 7 µM
C[C@@H]1O[C@@H](O[C@H]2[C@H](OC(=O)[C@]34CCC(C)(C)C[C@H]3C3=CC[C@@H]5[C@@]6(C)CC[C@H](O[C@H]7O[C@H](C(=O)O)[C@@H](O)[C@H](O[C@@H]8OC[C@@H](O)[C@H](O)[C@H]8O)[C@H]7O[C@@H]7O[C@H](CO)[C@H](O)[C@H](O)[C@H]7O)[C@@](C)(C=O)[C@@H]6CC[C@@]5(C)[C@]3(C)CC4)O[C@H](C)[C@H](O[C@@H]3O[C@H](C)[C@@H](O)[C@H](O)[C@H]3O)[C@@H]2O)[C@H](O)[C@H](O)[C@H]1O[C@@H]1OC[C@@H](O)[C@H](O[C@@H]2OC[C@@H](O)[C@H](O)[C@H]2O)[C@H]1O [SA1641],endosomal escape enhancing activity,[1],activity was confirmed
GE1741,endosomal escape enhancing activity,[1],activity was confirmed
CC(=O)OC1C(C)OC(OC2C(C)OC(OC(=O)[C@]34CCC(C)(C)CC3C3=CCC5[C@@]6(C)CC[C@H](OC7OC(C(=O)O)C(O)C(OC8OCC(O)C(O)C8O)C7OC7OC(CO)C(O)C(O)C7O)[C@@](C)(C=NNC(=O)CCCCCN7C(=O)CC(SCCO)C7=O)C6CC[C@@]5(C)[C@]3(C)C[C@H]4O)C(OC3OC(C)C(OC4OCC(O)C(OC5OC(CO)C(O)C(O)C5O)C4O)C(O)C3O)C2O)C(O)C1OC1OCC(O)C(O)C1O (stereo partly shown) [SO1861-EMCH (blocked)],time to 50% release of saponin,[7],12 h
SO1772,endosomal escape enhancing activity,[1],activity was confirmed
CC(=O)OC1C(C)OC(OC2C(C)OC(OC(=O)[C@]34CCC(C)(C)CC3C3=CCC5[C@@]6(C)CC[C@H](OC7OC(C(=O)O)C(O)C(OC8OCC(O)C(O)C8O)C7OC7OC(CO)C(O)C(O)C7O)[C@@](C)(/C=N/NC(=O)CCCCCN7C(=O)C=CC7=O)C6CC[C@@]5(C)[C@]3(C)C[C@H]4O)C(OC3OC(C)C(OC4OCC(O)C(OC5OC(CO)C(O)C(O)C5O)C4O)C(O)C3O)C2O)C(O)C1OC1OCC(O)C(O)C1O (stereo partly shown) [SO1861-EMCH],cell killing,"[5]; A2058 (EGFR-), titrated on fixed 5 pM bivalent VHH-EGFR-dianthin",not effective
same,cell killing,"[5]; A2058 (EGFR-), titrated on fixed 10 pM matuzumab-dianthin",not effective
same,IC50,"[5]; A2058 (EGFR-/CD71+), titrated on fixed 10 pM CD71mab-saporin",1500 nM
same,IC50,"[6]; A431 (EGFR++), titrated on fixed 5 pM bivalent VHH-EGFR-dianthin, read-out: cell killing IC50",1500 nM
same,IC50,"[6]; A431 (EGFR++), titrated on fixed 10 pM cetuximab-saporin, read-out: cell killing IC50",1000 nM
same,IC50,"[6]; A431 (EGFR++), titrated on fixed 10 pM matuzumab-dianthin, read-out: cell killing IC50",1500 nM
same,IC50,"[6]; A431 (EGFR++/CD71+), titrated on fixed 10 pM CD71mab-saporin, read-out: cell killing IC50",2000 nM
SO1730,endosomal escape enhancing activity,[1],activity was confirmed
SO1700,endosomal escape enhancing activity,[1],activity was confirmed
cetuximab-saporin (antibody),"cell killing on MDA-MB-468 (EGFR++), alone",[8],300 pM
